Data reported in the supplement of paper PMC5908809.

How the values were obtained:
NKL (IL-2 2.5 ng/mL) [1] = assay: percent inhibition of viability; higher = more inhibition; details: 72 h
NK-YS (IL-2 2.5 ng/mL) [2] = assay: as above; details: 72 h
NK-92 (IL-2 2.5 ng/mL) [3] = assay: as above; details: 72 h
[4] = system: normal primary NK cells, pool 2 (3 donors) (IL-2 2.5 ng/mL); assay: as above; details: 72 h
YT (IL-2 2.5 ng/mL) [5] = assay: as above; details: 72 h
KHYG-1 (IL-2 2.5 ng/mL) [6] = assay: as above; details: 72 h
KAI3 (IL-2 2.5 ng/mL) [7] = assay: as above; details: 72 h
DERL-7 (IL-2 2.5 ng/mL) [8] = assay: as above; details: 72 h
[9] = system: normal primary NK cells, pool 1 (3 donors), resting (IL-2 0 ng/mL); assay: as above; details: 72 h
[10] = system: normal primary NK cells, pool 1 (3 donors) (IL-2 2.5 ng/mL); assay: as above; details: 72 h
SNK-6 (IL-2 2.5 ng/mL) [11] = assay: as above; details: 72 h
[12] = system: normal primary NK cells, pool 3 (3 donors) (IL-2 2.5 ng/mL); assay: as above; details: 72 h
IMC-1 (IL-2 20 ng/mL) [13] = assay: as above; details: 72 h
[14] = system: normal NK cells expanded with K562-aAPC; assay: drug sensitivity score (DSS) (DSS units); higher = more sensitive; extreme values may be limits of the assay; details: 72 h; IL-2 2.5 ng/mL
Protocol: (§1)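 Drug sensitivity and resistance testing on K562-aAPC-expanded normal NK cells: 5 concentrations (10-fold steps over a 10,000-fold range), 72 h at 37 °C, viability by CellTiter-Glo normalised to DMSO and benzethonium chloride controls; DSS from the fitted curve.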

NKL (IL-2 2.5 ng/mL) [15] = assay: as above; details: 72 h
NK-YS (IL-2 2.5 ng/mL) [16] = assay: as above; details: 72 h
NK-92 (IL-2 2.5 ng/mL) [17] = assay: as above; details: 72 h
[18] = system: normal primary NK cells, pool 2 (3 donors) (IL-2 2.5 ng/mL); assay: as above; details: 72 h
YT (IL-2 2.5 ng/mL) [19] = assay: as above; details: 72 h
KHYG-1 (IL-2 2.5 ng/mL) [20] = assay: as above; details: 72 h
KAI3 (IL-2 2.5 ng/mL) [21] = assay: as above; details: 72 h
DERL-7 (IL-2 2.5 ng/mL) [22] = assay: as above; details: 72 h
[23] = system: normal primary NK cells, pool 1 (3 donors), resting (IL-2 0 ng/mL); assay: as above; details: 72 h
[24] = system: normal primary NK cells, pool 1 (3 donors) (IL-2 2.5 ng/mL); assay: as above; details: 72 h
SNK-6 (IL-2 2.5 ng/mL) [25] = assay: as above; details: 72 h
[26] = system: normal primary NK cells, pool 3 (3 donors) (IL-2 2.5 ng/mL); assay: as above; details: 72 h
IMC-1 (IL-2 20 ng/mL) [27] = assay: as above; details: 72 h
[28] = system: normal NK cells expanded with K562-aAPC; assay: percent inhibition of viability; higher = more inhibition; details: 72 h, IL-2 2.5 ng/mL
Protocol: as §1

COCC(=O)NC/C=C/c1ccc2ncnc(Nc3ccc(Oc4ccc(C)nc4)c(C)c3)c2c1 (max concentration tested 10000 nM)
percent inhibition of viability [%]
Details	1 nM	10 nM	100 nM	1000 nM	10000 nM
DERL-7 (IL-2 2.5 ng/mL) [8]	-3.08	-0.4	-4.63	9.9	33
IMC-1 (IL-2 20 ng/mL) [13]	-0.96	-1.82	-0.25	1.87	55.9
KAI3 (IL-2 2.5 ng/mL) [7]	16.4	7.76	7.06	11.1	64.8
KHYG-1 (IL-2 2.5 ng/mL) [6]	-2.05	-5.21	-2.56	-1.27	29.4
NK-92 (IL-2 2.5 ng/mL) [3]	1.59	8.37	6.53	22.8	75
NK-YS (IL-2 2.5 ng/mL) [2]	-0.22	0.49	1.46	4.98	25.6
NKL (IL-2 2.5 ng/mL) [1]	1.03	-1.8	0.69	8.06	58.8
SNK-6 (IL-2 2.5 ng/mL) [11]	-0.22	-18.4	-12.7	-1.13	63.7
YT (IL-2 2.5 ng/mL) [5]	3.6	-0.32	0.57	9.46	48.2
[4]	1.3	6.76	-0.67	11.9	23.1
[9]	14.9	9.42	15.7	21.2	61
[10]	-12	-6.34	-1.36	-3.88	14.2
[12]	-5.66	4.44	4.87	10.9	5.97
[28]	-7.95	-1.69	-8	-3.66	3.1

Details	drug sensitivity score
DERL-7 (IL-2 2.5 ng/mL) [22]	2.95
IMC-1 (IL-2 20 ng/mL) [27]	3.25
KAI3 (IL-2 2.5 ng/mL) [21]	5.41
KHYG-1 (IL-2 2.5 ng/mL) [20]	1.16
NK-92 (IL-2 2.5 ng/mL) [17]	7.15
NK-YS (IL-2 2.5 ng/mL) [16]	1.75
NKL (IL-2 2.5 ng/mL) [15]	4.55
SNK-6 (IL-2 2.5 ng/mL) [25]	3.37
YT (IL-2 2.5 ng/mL) [19]	4.08
[14]	0
[18]	2.13
[23]	6.9
[24]	0.09
[26]	0.05

C[C@@H](Oc1cc(-n2cnc3ccc(CN4CCN(C)CC4)cc32)sc1C(N)=O)c1ccccc1C(F)(F)F (max concentration tested 10000 nM)
percent inhibition of viability [%]
Details	1 nM	10 nM	100 nM	1000 nM	10000 nM
DERL-7 (IL-2 2.5 ng/mL) [8]	-5.05	5.6	99	97.7	101
IMC-1 (IL-2 20 ng/mL) [13]	-5.44	-5.88	96.8	98	99.8
KAI3 (IL-2 2.5 ng/mL) [7]	-0.2	19.3	57.2	46.8	103
KHYG-1 (IL-2 2.5 ng/mL) [6]	-6.87	20.7	99	104	109
NK-92 (IL-2 2.5 ng/mL) [3]	-10.3	68.8	96.9	98.4	108
NK-YS (IL-2 2.5 ng/mL) [2]	-6.78	7.77	68.5	63.2	107
NKL (IL-2 2.5 ng/mL) [1]	-22.4	10.7	76.8	76.5	107
SNK-6 (IL-2 2.5 ng/mL) [11]	-6.84	54.4	70.9	60.5	100
YT (IL-2 2.5 ng/mL) [5]	-6.84	0.54	79.4	64	108
[4]	-4.17	-1.65	6.09	21.6	97.1
[9]	15.5	24.8	22.1	54.6	96.9
[10]	-0.02	-2.73	1.92	18.8	99.3
[12]	-0.27	-3.72	15.8	9.91	100
[28]	-4.93	10.2	55.8	59.8	101

Details	drug sensitivity score
DERL-7 (IL-2 2.5 ng/mL) [22]	31.2
IMC-1 (IL-2 20 ng/mL) [27]	29.6
KAI3 (IL-2 2.5 ng/mL) [21]	19.3
KHYG-1 (IL-2 2.5 ng/mL) [20]	33.8
NK-92 (IL-2 2.5 ng/mL) [17]	38.4
NK-YS (IL-2 2.5 ng/mL) [16]	23.1
NKL (IL-2 2.5 ng/mL) [15]	27.8
SNK-6 (IL-2 2.5 ng/mL) [25]	27.6
YT (IL-2 2.5 ng/mL) [19]	27.5
[14]	19.8
[18]	8.79
[23]	15.5
[24]	8.55
[26]	7.17
